Assay results taken from the NIST ThermoML archive (doi:10.1021/acs.jced.6b00178).
Numbers after ± are expanded uncertainties.

Experiment: xn = mol fraction of the nth substance listed
Details: 100 kPa, Liquid; for viscosity: Concentric cylinders viscometry; for mass density: Vibrating tube method

## CCCCn1cc[n+](C)c1.O=S(=O)([O-])C(F)(F)F [1-butyl-3-methylimidazolium trifluoromethanesulfonate] + CCCC[n+]1ccn(C)c1.O=S(=O)([N-]S(=O)(=O)C(F)(F)F)C(F)(F)F
283.15 K, x2 = 0
  viscosity: 225.61 ± 12 mPa·s
  mass density: 1308.4 ± 0.7 kg/m3
283.15 K, x2 = 0.25
  viscosity: 154.7 ± 8.1 mPa·s
  mass density: 1352.7 ± 0.7 kg/m3
283.15 K, x2 = 0.5
  viscosity: 145 ± 7.5 mPa·s
  mass density: 1389 ± 0.7 kg/m3
283.15 K, x2 = 0.746
  viscosity: 145.79 ± 7.6 mPa·s
  mass density: 1421.8 ± 0.7 kg/m3
288.15 K, x2 = 0
  viscosity: 168.05 ± 8.8 mPa·s
  mass density: 1304.3 ± 0.7 kg/m3
288.15 K, x2 = 0.25
  viscosity: 117.06 ± 6 mPa·s
  mass density: 1348.3 ± 0.7 kg/m3
288.15 K, x2 = 0.5
  viscosity: 109.34 ± 5.6 mPa·s
  mass density: 1384.4 ± 0.7 kg/m3
288.15 K, x2 = 0.746
  viscosity: 111.5 ± 5.7 mPa·s
  mass density: 1417.1 ± 0.7 kg/m3
293.15 K, x2 = 0
  viscosity: 128.51 ± 6.6 mPa·s
  mass density: 1300.3 ± 0.7 kg/m3
293.15 K, x2 = 0.25
  viscosity: 90.69 ± 4.6 mPa·s
  mass density: 1344 ± 0.7 kg/m3
293.15 K, x2 = 0.5
  viscosity: 84.53 ± 4.3 mPa·s
  mass density: 1379.9 ± 0.7 kg/m3
293.15 K, x2 = 0.746
  viscosity: 87.3 ± 4.4 mPa·s
  mass density: 1412.4 ± 0.7 kg/m3
298.15 K, x2 = 0
  viscosity: 99.14 ± 5.1 mPa·s
  mass density: 1296.3 ± 0.7 kg/m3
298.15 K, x2 = 0.25
  viscosity: 71.42 ± 3.6 mPa·s
  mass density: 1339.8 ± 0.7 kg/m3
298.15 K, x2 = 0.5
  viscosity: 66.62 ± 3.4 mPa·s
  mass density: 1375.5 ± 0.7 kg/m3
298.15 K, x2 = 0.746
  viscosity: 68.68 ± 3.5 mPa·s
  mass density: 1407.8 ± 0.7 kg/m3
303.15 K, x2 = 0
  viscosity: 78.26 ± 4 mPa·s
  mass density: 1292.3 ± 0.7 kg/m3
303.15 K, x2 = 0.25
  viscosity: 57.29 ± 2.9 mPa·s
  mass density: 1335.5 ± 0.7 kg/m3
303.15 K, x2 = 0.5
  viscosity: 53.39 ± 2.7 mPa·s
  mass density: 1371 ± 0.7 kg/m3
303.15 K, x2 = 0.746
  viscosity: 55.86 ± 2.8 mPa·s
  mass density: 1403.2 ± 0.7 kg/m3
308.15 K, x2 = 0
  viscosity: 62.76 ± 3.2 mPa·s
  mass density: 1288.4 ± 0.7 kg/m3
308.15 K, x2 = 0.25
  viscosity: 46.66 ± 2.3 mPa·s
  mass density: 1331.3 ± 0.7 kg/m3
308.15 K, x2 = 0.5
  viscosity: 43.56 ± 2.2 mPa·s
  mass density: 1366.6 ± 0.7 kg/m3
308.15 K, x2 = 0.746
  viscosity: 45.8 ± 2.3 mPa·s
  mass density: 1398.6 ± 0.7 kg/m3
313.15 K, x2 = 0
  viscosity: 51.33 ± 2.6 mPa·s
  mass density: 1284.5 ± 0.7 kg/m3
313.15 K, x2 = 0.25
  viscosity: 38.52 ± 1.9 mPa·s
  mass density: 1327 ± 0.7 kg/m3
313.15 K, x2 = 0.5
  viscosity: 35.96 ± 1.8 mPa·s
  mass density: 1362.2 ± 0.7 kg/m3
313.15 K, x2 = 0.746
  viscosity: 38.1 ± 1.9 mPa·s
  mass density: 1394 ± 0.7 kg/m3
318.15 K, x2 = 0
  viscosity: 42.1 ± 2.1 mPa·s
  mass density: 1280.6 ± 0.7 kg/m3
318.15 K, x2 = 0.25
  viscosity: 32.19 ± 1.6 mPa·s
  mass density: 1322.8 ± 0.7 kg/m3
318.15 K, x2 = 0.5
  viscosity: 30.15 ± 1.5 mPa·s
  mass density: 1357.8 ± 0.7 kg/m3
318.15 K, x2 = 0.746
  viscosity: 32.2 ± 1.6 mPa·s
  mass density: 1389.4 ± 0.7 kg/m3
323.15 K, x2 = 0
  viscosity: 35.13 ± 1.8 mPa·s
  mass density: 1276.7 ± 0.7 kg/m3
323.15 K, x2 = 0.25
  viscosity: 27.21 ± 1.4 mPa·s
  mass density: 1318.7 ± 0.7 kg/m3
323.15 K, x2 = 0.5
  viscosity: 25.43 ± 1.3 mPa·s
  mass density: 1353.5 ± 0.7 kg/m3
323.15 K, x2 = 0.746
  viscosity: 27.44 ± 1.4 mPa·s
  mass density: 1384.9 ± 0.7 kg/m3
328.15 K, x2 = 0
  viscosity: 29.63 ± 1.5 mPa·s
  mass density: 1272.8 ± 0.7 kg/m3
328.15 K, x2 = 0.25
  viscosity: 23.24 ± 1.2 mPa·s
  mass density: 1314.5 ± 0.7 kg/m3
328.15 K, x2 = 0.5
  viscosity: 21.66 ± 1.1 mPa·s
  mass density: 1349.2 ± 0.7 kg/m3
328.15 K, x2 = 0.746
  viscosity: 23.47 ± 1.2 mPa·s
  mass density: 1380.4 ± 0.7 kg/m3
333.15 K, x2 = 0
  viscosity: 25.5 ± 1.3 mPa·s
  mass density: 1268.9 ± 0.7 kg/m3
333.15 K, x2 = 0.25
  viscosity: 20.06 ± 1 mPa·s
  mass density: 1310.4 ± 0.7 kg/m3
333.15 K, x2 = 0.5
  viscosity: 18.55 ± 0.93 mPa·s
  mass density: 1344.9 ± 0.7 kg/m3
333.15 K, x2 = 0.746
  viscosity: 20.27 ± 1 mPa·s
  mass density: 1376 ± 0.7 kg/m3
338.15 K, x2 = 0
  viscosity: 21.72 ± 1.1 mPa·s
  mass density: 1265.1 ± 0.7 kg/m3
338.15 K, x2 = 0.25
  viscosity: 17.4 ± 0.88 mPa·s
  mass density: 1306.2 ± 0.7 kg/m3
338.15 K, x2 = 0.5
  viscosity: 16.08 ± 0.81 mPa·s
  mass density: 1340.6 ± 0.7 kg/m3
338.15 K, x2 = 0.746
  viscosity: 17.6 ± 0.89 mPa·s
  mass density: 1371.5 ± 0.7 kg/m3
343.15 K, x2 = 0
  viscosity: 18.84 ± 0.95 mPa·s
  mass density: 1261.3 ± 0.6 kg/m3
343.15 K, x2 = 0.25
  viscosity: 15.23 ± 0.77 mPa·s
  mass density: 1302.2 ± 0.7 kg/m3
343.15 K, x2 = 0.5
  viscosity: 14.13 ± 0.71 mPa·s
  mass density: 1336.3 ± 0.7 kg/m3
343.15 K, x2 = 0.746
  viscosity: 15.46 ± 0.78 mPa·s
  mass density: 1367.1 ± 0.7 kg/m3
348.15 K, x2 = 0
  viscosity: 16.47 ± 0.83 mPa·s
  mass density: 1257.5 ± 0.6 kg/m3
348.15 K, x2 = 0.25
  viscosity: 13.43 ± 0.68 mPa·s
  mass density: 1298.1 ± 0.7 kg/m3
348.15 K, x2 = 0.5
  viscosity: 12.54 ± 0.63 mPa·s
  mass density: 1332 ± 0.7 kg/m3
348.15 K, x2 = 0.746
  viscosity: 13.66 ± 0.69 mPa·s
  mass density: 1362.6 ± 0.7 kg/m3
353.15 K, x2 = 0
  viscosity: 14.83 ± 0.75 mPa·s
  mass density: 1253.7 ± 0.6 kg/m3
353.15 K, x2 = 0.25
  viscosity: 11.94 ± 0.6 mPa·s
  mass density: 1294 ± 0.7 kg/m3
353.15 K, x2 = 0.5
  viscosity: 11.18 ± 0.56 mPa·s
  mass density: 1327.8 ± 0.7 kg/m3
353.15 K, x2 = 0.746
  viscosity: 12.23 ± 0.62 mPa·s
  mass density: 1358.2 ± 0.7 kg/m3
358.15 K, x2 = 0
  viscosity: 12.86 ± 0.65 mPa·s
  mass density: 1249.9 ± 0.6 kg/m3
358.15 K, x2 = 0.25
  viscosity: 10.63 ± 0.54 mPa·s
  mass density: 1290 ± 0.7 kg/m3
358.15 K, x2 = 0.5
  viscosity: 9.981 ± 0.5 mPa·s
  mass density: 1323.5 ± 0.7 kg/m3
358.15 K, x2 = 0.746
  viscosity: 10.93 ± 0.55 mPa·s
  mass density: 1353.8 ± 0.7 kg/m3
363.15 K, x2 = 0
  viscosity: 11.48 ± 0.58 mPa·s
  mass density: 1246.2 ± 0.6 kg/m3
363.15 K, x2 = 0.25
  viscosity: 9.541 ± 0.48 mPa·s
  mass density: 1286.1 ± 0.7 kg/m3
363.15 K, x2 = 0.5
  viscosity: 8.973 ± 0.45 mPa·s
  mass density: 1319.3 ± 0.7 kg/m3
363.15 K, x2 = 0.746
  viscosity: 9.909 ± 0.5 mPa·s
  mass density: 1349.5 ± 0.7 kg/m3
